Source: article PMC3832545 (PLoS ONE, 2013)

Experiments:
[1] = Mouse C-peptide in plasma after sc injection in DIO-mice; type: in vivo; conditions: 600 nmol/kg sc, P<0.05
Description: Before experiments were initiated, the systemic levels of mouse insulin were measured using a Rat/Mouse Insulin ELISA kit (Millipore Corp., Bilerica, MA, USA), according to manufacturer’s instructions. […] Mouse C-peptide was assayed with Rat/Mouse C-peptide 2 ELISA kit (Millipore), according to manufacturer’s instructions. […] Insulin X10 was measured in mouse plasma using a wash-LOCI assay, as also described recently. See Materials S1 for detailed information regarding these assays.
At termination of experiments whole blood was collected in EDTA-coated tubes (BD Biosciences) by cardiac puncture. Blood plasma was isolated by centrifugation for 10 min at 1500 rpm and thereafter stored at -80 °C until analysis. Mouse C-peptide was assayed with Rat/Mouse C-peptide 2 ELISA kit (Millipore) according to manufacturer’s instructions. […] In initial tests the sensitivity and specificity of the assay in mouse plasma was confirmed. […] After incubation for another 30 min at 21-22 °C chemiluminescence was measured in an Envision plate reader (Perkin Elmer). […] Finally 10 µl of streptavidin coated donor beads were added, incubated as above and immediately after this chemiluminescence was measured using an Envision plate reader. […]

[2] = tested on: female and male rats; conditions: supra-pharmacological doses, ref [47]; cited from earlier work
Text: However, the in vitro ...

[3] = tested on: P-Akt (Ser473); assay: Signalling in MC38 cells, Western blot P-Akt; type: cell-based, mouse; conditions: covers both Akt (Ser473) and p70S6K (Thr389)
Description: MC38 cells (mouse cell line described by Corbett et al. (1975) and generously provided by Dr. Pnina Brodt, McGill University, Montreal, QC) and MCF-7 cells (ATCC, Manassas, VA, USA), were cultivated in DMEM medium containing 4.5 g/l glucose (Wisent Inc., Montreal, QC, Canada) supplemented with 10% (v/v) fetal bovine serum (FBS, Invitrogen) and 20 μg/ml gentamicin (Sandoz Canada, Boucherville, QC, Canada) (i.e., growth medium). Cells used in animal experiments were trypsinized, washed once in PBS and resuspended in PBS (4°C) at a concentration of 5.0 × 10^6 cells/ml and kept on ice until sc injection in the mice. For signalling experiments MC38 cells were cultivated in growth medium for two days until 80-90% confluent, cell cultures were then rinsed once in PBS (room temperature), and starvation medium (similar to growth medium, except it contained only 0.25% (v/v) FBS and no phenol red) was added for 3 h. […] Each signalling experiment comprised two replicate samples per treatment and three independent experiments were performed. […] Data describing IR and IGF-1R expression in various mouse tissues were analysed in a one-way ANOVA followed by pairwise comparisons between tissues using multiple t-test with Bonferroni correction.

[4] = tested on: IGF-1 receptor (IGF-1R); conditions: ref [10], [11]; cited from earlier work
[5] = tested on: insulin receptor (IR); conditions: cited from earlier work
[6] = cited from earlier work
Text: Further studies are needed to clarify if this effect is also observed during other experimental conditions. However, our in vivo data for ...

[7] = tested on: female Sprague Dawley rats; conditions: rat, in vivo; cited from earlier work

Row | Substance | Levels of C-peptide in plasma 0.5 h after treatment compared to >5 h [1] | Incidence of mammary carcinoma and pheochromocytoma [2] | Increase of phosphorylation of Akt (Ser473) and p70S6K (Thr389) compared to HI [3] | Increase of binding affinity to the IGF-1 receptor (vs human insulin) [4] | Increase of binding affinity to the insulin receptor (vs human insulin) ([5]; ref [10], [11]) | Off-rate from the IR compared to native human insulin ([5]; ref [12]) | Mitogenic potency relative to HI, some cell lines ([6]; ref [10], [13], [46]) | Mitogenic potential relative to HI in vitro ([6]; ref [14]) | Incidence of spontaneous mammary tumors [7]
1 | human insulin [HI] | significantly decreased |  |  |  |  |  |  |  | 
2 | IGF-1: recombinant human IGF-1 (Increlex, IPSEN Pharma GmbH) |  | increased the incidence |  |  |  |  |  |  | 
3 | insulin analog B10Asp [X10] | significantly decreased |  | 35–90% | 3- to 5 fold | 2 fold | decreased off-rate | 10 fold | 3–15 fold | increased the incidence
